Data on 14 molecules can be found in ChEMBL document CHEMBL1201862, “PubChem BioAssay data set” (2004).

Each structure is given as a SMILES string.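 All cell lines were grown in 96-well plates and treated with compound for 48 hours. GI50 is the concentration that inhibits growth by half.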 The source made the active and inactive calls. Cut-off read from the data, not from the text of the source: active = GI50 up to about 1.1 µM and inactive = higher.

What all share (assay): DTP human tumour cell line panel, 48 h
Test [1] has as its system HCT-116.
For test [2], the system named is SK-MEL-2.
Test [3] has as its system UO-31.
Test [4] has as its system SNB-19.
In test [5] the test system is PC-3.
In test [6] the test system is SF-539.
Test [7] has as its system NCI-H522.
Test [8] concerns HL-60.
In test [9] the test system is Hs-578T.
Test [10] relates to SK-MEL-5.
Test [11] deals with MDA-N.
Test [12] concerns Malme-3M.
Test [13] has as its system CAKI-1.
Test [14] concerns U-251.
The test system of test [15] is HCT-15.
Test [16] relates to LOX IMVI.
Test [17] relates to SF-295.
Test [18] concerns SR.

In general, GI50 refers to the concentration giving 50% growth inhibition. Turning to `COc1ccc(/C=N\NC(=O)Nc2cccc3ccccc23)cc1`, the GI50 in test [1] is 13.7 µM (inactive); in test [2], 9.14 µM (inactive); in [3], 35.3 µM (inactive); in test [4] it was 17.1 µM (inactive); in [5], 20.8 µM (inactive); in test [6], 14 µM (inactive). Besides, the GI50 was 15.6 µM (inactive) in test [7]; 4.82 µM (inactive) in test [8]; 6.75 µM (inactive) in test [9]; 28.2 µM (inactive) in [10]; 2.7 µM (inactive) in test [11]; 26.2 µM (inactive) in [12]. Besides, the GI50 was 13.7 µM (inactive) in test [13], 13.9 µM (inactive) in [14], 6.79 µM in test [15] and 13.1 µM (inactive) in test [16].
Regarding `NC(=S)N/N=C(\Cc1nc2ccc(Cl)cc2nc1O)C(=O)Nc1ccc(Cl)cc1`, the GI50 was > 100 µM (inactive) in [1]; > 100 µM (inactive) in test [2]; 40 µM (inactive) in test [3]; > 100 µM (inactive) in [4]; > 100 µM (inactive) in [5]; > 100 µM (inactive) in test [6]. For the same molecule, the GI50 in test [7], in test [8], in test [9], in test [10], in test [13] and in test [14] was > 100 µM (inactive) each time. The GI50 was over 100 µM in [15], > 100 µM (inactive) in test [16] and > 100 µM (inactive) in [17].
On to `Cc1ccc(/N=N/N(C)C(C)C(O)Cc2ccccc2)cc1` (centres undefined), for which the GI50 in test [1] was 49.3 µM (inactive); in [2], 37.8 µM (inactive); in [3] it was 18 µM (inactive); in [4], 82.2 µM (inactive); in [5], 20.3 µM (inactive); in test [8], 33.8 µM (inactive). Besides, the GI50 in test [9] is 41.9 µM (inactive); in test [10] it was 39.6 µM (inactive); in test [11] it was 23.7 µM (inactive); in test [12], > 100 µM (inactive); in test [13] it was 93.8 µM (inactive); in test [14], 88.5 µM (inactive). Further, the GI50 was 41 µM in [15] and 38.3 µM (inactive) in test [17].
Turning to `Cc1ccc(Nc2nc(=O)c3c4ccccc4n(C(=O)OC(C)(C)C)c3s2)cc1`, the GI50 is 20.7 µM (inactive) in test [2]; 5.9 µM (inactive) in test [3]; 79.1 µM (inactive) in [4]; 29 µM (inactive) in test [5]; 26.6 µM (inactive) in test [6]; 22.5 µM (inactive) in test [7]. In addition, the GI50 in test [8] is 24.8 µM (inactive); in test [9] it was 33.2 µM (inactive); in [10] it was 13.2 µM (inactive); in test [12] it was 28.4 µM (inactive); in test [13] it was 18.2 µM (inactive); in [14], 30.1 µM (inactive). Moreover, the GI50 is 22.3 µM in [15], 18.7 µM (inactive) in test [16], 12.8 µM (inactive) in test [18] and 23 µM (inactive) in test [17].
In the case of `CC(C)c1cccc(C(C)C)c1NC(=O)C(=O)C(C(=O)c1ccc2ccccc2c1)C1OC(=O)c2ccccc21` (centres undefined), the GI50 in test [1] was > 100 µM (inactive); in [2], > 100 µM (inactive); in [3], 47.8 µM (inactive); in test [4] it was > 100 µM (inactive); in test [6], > 100 µM (inactive); in test [7], > 100 µM (inactive). For the same molecule, the GI50 in test [10] is > 100 µM (inactive); in [12], > 100 µM (inactive); in test [13], 52.4 µM (inactive); in test [14] it was > 100 µM (inactive); in test [15], over 100 µM; in [16], > 100 µM (inactive). Moreover, the GI50 in [18] and in test [17] was > 100 µM (inactive) in each case.
As to `CC(SC(=S)N1CCCCC1)C(=O)Nc1nnc(-c2ccc(Cl)cc2)o1` (centres undefined), the GI50 in [1] was 17.7 µM (inactive); in [2] it was 21.7 µM (inactive); in [3], 17.8 µM (inactive); in test [4] it was 31.4 µM (inactive); in test [5] it was 24.2 µM (inactive); in test [6], 58.7 µM (inactive). Besides, the GI50 in test [8] was 0.575 µM (active); in [9] it was 40.6 µM (inactive); in test [10] it was 32.1 µM (inactive); in test [12], 19.1 µM (inactive); in test [14], 24.7 µM (inactive); in test [15], 13 µM. For the same molecule, the GI50 in [16] was 23.6 µM (inactive).
As to `C#CCn1c(=O)c2ccccc2n(CC#C)c1=O`, the GI50 in test [1], in test [2], in test [3], in [4], in test [5] and in test [6] was > 10 µM (inactive) in each case. The GI50 in test [7], in [9], in test [10], in [11], in test [12] and in [13] was > 10 µM (inactive) each time. In addition, the GI50 was > 10 µM (inactive) in [14], over 10 µM in test [15], > 10 µM (inactive) in [16] and > 10 µM (inactive) in [17].
For `Cc1ccc(S(=O)(=O)/N=C(\NN)Nc2ccc(Cl)cc2)cc1`, the GI50 in test [1] was > 100 µM (inactive); in test [2], > 100 µM (inactive); in test [3], > 100 µM (inactive); in test [4], > 100 µM (inactive); in [5], > 100 µM (inactive); in test [6], 35.2 µM (inactive). Besides, the GI50 in test [8] was > 100 µM (inactive); in test [10], > 100 µM (inactive); in test [11] it was > 100 µM (inactive); in [13], > 100 µM (inactive); in test [14], > 100 µM (inactive); in test [15] it was over 100 µM. Also, the GI50 in test [16] is > 100 µM (inactive); in test [18] it was 83.9 µM (inactive); in test [17], > 100 µM (inactive).
Consider `CC(=O)c1cccc(Nc2nc3ccccc3c3occc23)c1`, for which the GI50 is 18.2 µM (inactive) in test [1]; 20.2 µM (inactive) in test [4]; 31.3 µM (inactive) in test [5]; 15.5 µM (inactive) in test [6]; > 100 µM (inactive) in test [8]; 12.7 µM (inactive) in test [10]. In addition, the GI50 in test [12] was 19.9 µM (inactive); in test [13], 32.8 µM (inactive); in [14], 17.9 µM (inactive); in test [15] it was 36.4 µM; in [16], 46.2 µM (inactive); in test [18], 47 µM (inactive). The GI50 in test [17] is 16.2 µM (inactive).
Turning to `CC1(C)CC(=O)C(CC2C(=O)c3ccccc3C2=O)C(=O)C1C(=O)C(=O)Nc1cccc2ccc(O)cc12` (centres undefined), the GI50 in test [1] is > 100 µM (inactive); in test [2] it was > 100 µM (inactive); in test [3], 33.8 µM (inactive); in test [4], > 100 µM (inactive); in test [5], 51.4 µM (inactive); in [6], > 100 µM (inactive). The GI50 in test [7] is > 100 µM (inactive); in test [8], > 100 µM (inactive); in test [9] it was 74.6 µM (inactive); in [10] it was > 100 µM (inactive); in [12] it was > 100 µM (inactive); in test [13], 34.4 µM (inactive). Moreover, the GI50 is > 100 µM (inactive) in [14], 59.3 µM in [15], 94.4 µM (inactive) in [16] and 92.3 µM (inactive) in test [17].
Consider `CCOP(=O)(OCC)C(C)(CC)NC` (centres undefined), for which the GI50 in test [1], in test [2], in [3], in test [4], in test [6] and in test [7] was > 100 µM (inactive) throughout. Besides, the GI50 in test [8], in [9], in test [10], in test [11], in [12] and in [13] was > 100 µM (inactive) each time. Besides, the GI50 was > 100 µM (inactive) in test [14], over 100 µM in [15], > 100 µM (inactive) in [16] and > 100 µM (inactive) in [17].
As to `O=C1c2ccccc2-c2c1c(-c1ccc(O)cc1O)nc1ccc3ccccc3c21`, the GI50 in test [1], in [2], in test [3], in test [4], in [5] and in test [6] was > 100 µM (inactive) in each case. The GI50 in test [9] was 21.1 µM (inactive); in test [11], > 100 µM (inactive); in test [12] it was > 100 µM (inactive); in test [13], > 100 µM (inactive); in [14], 75.2 µM (inactive); in [15], over 100 µM. Further, the GI50 in [17] was > 100 µM (inactive).
Regarding `Cc1nc2ccc(F)cc2c2c1CCS2`, the GI50 was 46.6 µM (inactive) in test [1]; 65.9 µM (inactive) in test [3]; 30.3 µM (inactive) in [4]; 41.1 µM (inactive) in test [5]; > 100 µM (inactive) in test [6]; 75.5 µM (inactive) in test [7]. The GI50 in test [8] was 24 µM (inactive); in [9], 43 µM (inactive); in test [10], 30.3 µM (inactive); in test [12], 84.5 µM (inactive); in [14] it was 50.4 µM (inactive); in test [15] it was over 100 µM. The results for the GI50 in [16], in test [18] and in test [17] were 51.3 µM (inactive), 56.8 µM (inactive) and 94.4 µM (inactive), respectively.
Turning to `COc1c(O)c(OC)c2oc(-c3ccc(O)c(O)c3)c(OC)c(=O)c2c1O`, the GI50 in [1] is 31.2 µM (inactive); in [2], 5.42 µM (inactive); in test [3], 28.1 µM (inactive); in [4], 53.8 µM (inactive); in test [5] it was 38.9 µM (inactive); in [6], 14.6 µM (inactive). For the same molecule, the GI50 in test [7] is 10.5 µM (inactive); in test [8], 17.7 µM (inactive); in [10], 11.8 µM (inactive); in test [11] it was 37.3 µM (inactive); in test [12], 6.24 µM (inactive); in test [13] it was 26.9 µM (inactive). The GI50 in [14] is 16.9 µM (inactive); in test [15] it was 11.5 µM; in test [16], 23.9 µM (inactive); in test [18], 28.7 µM (inactive); in test [17], 39.3 µM (inactive).
